# Assay results as given in ChEMBL document CHEMBL2069256, “Development of Toxoplasma gondii calcium-dependent protein kinase 1 (TgCDPK1) inhibitors with potent anti-toxoplasma activity” (J Med Chem, 2012).
# pEC50, pIC50: −log10 of the molar value.
# Experiments:
# [1] = test system: Toxoplasma gondii; assay: microbe, parasite or virus in culture; conditions: 44 h
# [2] = biological target: Epidermal growth factor receptor (Homo sapiens, UniProt P00533); assay: Inhibition of human EGFR using poly glu-Tyr as substrate after 30 mins
# [3] = biological target: Mitogen-activated protein kinase 14 (Homo sapiens, UniProt Q16539); assay: Inhibition of human p38alpha using myelin basic protein as substrate after 180 mins
# [4] = biological target: Tyrosine-protein kinase Lck (Homo sapiens, UniProt P06239); assay: Inhibition of human LCK using Ac-EIYGEFKKK-OH as substrate after 60 mins
# [5] = biological target: Tyrosine-protein kinase ABL1 (Homo sapiens, UniProt P00519); assay: Inhibition of human ABL using EAIYAAPFAKKK-OH as substrate by phosphor imaging method
# [6] = Cytotoxicity against human CRL8155 cells assessed as inhibition of cell growth after 48 to 72 hrs by alamar blue assay; assay type: cell-based
# [7] = biological target: Tyrosine-protein kinase CSK (Homo sapiens, UniProt P41240); assay: Inhibition of human CSK using Ac-KKKKEEIYFFF-OH as substrate after 180 mins
# [8] = biological target: T1, Ephrin type-A receptor 3 (Homo sapiens, UniProt P29320); assay: Inhibition of human EPHA3 using myelin basic protein as substrate after 120 mins
# T1 sequence (P29320 whole entry): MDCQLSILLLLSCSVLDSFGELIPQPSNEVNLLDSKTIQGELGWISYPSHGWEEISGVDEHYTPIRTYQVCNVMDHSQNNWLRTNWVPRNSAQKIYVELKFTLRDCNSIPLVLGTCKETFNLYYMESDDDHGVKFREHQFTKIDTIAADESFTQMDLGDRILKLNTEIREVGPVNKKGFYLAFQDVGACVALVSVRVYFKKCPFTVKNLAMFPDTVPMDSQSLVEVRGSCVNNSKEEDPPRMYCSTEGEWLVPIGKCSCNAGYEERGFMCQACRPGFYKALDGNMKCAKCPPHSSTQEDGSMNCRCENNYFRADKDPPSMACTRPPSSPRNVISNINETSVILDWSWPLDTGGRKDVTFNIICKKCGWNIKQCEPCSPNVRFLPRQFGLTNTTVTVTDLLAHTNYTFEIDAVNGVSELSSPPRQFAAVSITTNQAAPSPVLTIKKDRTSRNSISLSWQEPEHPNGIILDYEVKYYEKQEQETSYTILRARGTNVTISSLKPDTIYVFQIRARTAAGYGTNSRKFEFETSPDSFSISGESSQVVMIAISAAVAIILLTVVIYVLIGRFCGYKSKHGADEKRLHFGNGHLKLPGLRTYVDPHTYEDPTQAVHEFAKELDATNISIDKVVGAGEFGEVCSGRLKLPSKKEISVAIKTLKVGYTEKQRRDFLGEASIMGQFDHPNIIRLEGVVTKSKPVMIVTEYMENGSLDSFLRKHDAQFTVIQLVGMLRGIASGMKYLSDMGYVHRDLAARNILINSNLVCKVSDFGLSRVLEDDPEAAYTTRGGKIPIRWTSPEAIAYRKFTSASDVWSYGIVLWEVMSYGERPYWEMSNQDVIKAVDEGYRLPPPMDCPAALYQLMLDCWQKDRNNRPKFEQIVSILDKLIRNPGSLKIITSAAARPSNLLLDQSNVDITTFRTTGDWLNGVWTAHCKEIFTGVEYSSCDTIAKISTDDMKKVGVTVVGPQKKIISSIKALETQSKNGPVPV
# [9] = test system: HL-60; assay: Cytotoxicity against human HL60 cells assessed as inhibition of cell growth after 48 to 72 hrs by alamar blue assay; assay type: cell-based
# [10] = biological target: Proto-oncogene tyrosine-protein kinase Src (Homo sapiens, UniProt P12931)
smiles,measurement,setting,value
CCOc1ccc2cc(-c3nn(CCC4CCN(C)CC4)c4ncnc(N)c34)ccc2c1,pEC50,[1],7.31
C=CCOc1ccc2cc(-c3nn(C(C)C)c4ncnc(N)c34)ccc2c1,pEC50,[1],8.00
CCOc1ccc2cc(-c3nn(C4CCN(S(C)(=O)=O)CC4)c4ncnc(N)c34)ccc2c1,pEC50,[1],7.46
COc1ccc(-c2nn(CC3CCNCC3)c3ncnc(N)c23)cc1C,pEC50,[1],5.77
CCOc1ccc2cc(-c3nn(C4CCN(C)CC4)c4ncnc(N)c34)ccc2c1,pIC50,[2],< 5.00
same,pIC50,[3],< 5.00
same,pIC50,[4],6.92
same,pEC50,[1],7.30
same,pIC50,[5],< 5.00
same,GI50,[6],> 10 µM
same,pIC50,[7],5.00
same,pIC50,[8],< 5.00
same,GI50,[9],> 10 µM
CCOc1ccc2cc(-c3nn(C4CCNCC4)c4ncnc(N)c34)ccc2c1,pEC50,[1],7.35
Cn1ncc2cc(-c3nn(C(C)(C)C)c4ncnc(N)c34)ccc21,pEC50,[1],6.92
CC(C)n1nc(-c2cc3ccccc3[nH]2)c2c(N)ncnc21,pIC50,[10],5.82
Cn1ncc2cc(-c3nn(CC4CCNCC4)c4ncnc(N)c34)ccc21,pEC50,[1],< 5.20
Nc1ncnc2c1c(-c1ccc3cc(OCc4ccccc4Cl)ccc3c1)nn2CC1CCNCC1,pEC50,[1],5.96
CC(C)COc1ccc2cc(-c3nn(C(C)C)c4ncnc(N)c34)ccc2c1,pEC50,[1],6.51
CC(C)(C)n1ncc2c(N)ncnc21,pEC50,[1],< 5.20
same,pIC50,[10],< 5.00
Nc1ncnc2c1c(-c1cnc3ccccc3c1)nn2CC1CCNCC1,pEC50,[1],< 5.20
same,pIC50,[10],< 5.00
CCOc1ccc2cc(-c3nn(C(C)C)c4ncnc(N)c34)ccc2c1,pIC50,[2],6.15
same,pIC50,[4],7.28
same,pIC50,[7],5.51
same,pIC50,[8],5.43
CCOc1ccc2cc(-c3nn(C4CCN(CC)CC4)c4ncnc(N)c34)ccc2c1,pEC50,[1],7.05
Nc1ncnc2c1c(-c1ccc3ncccc3c1)nn2CC1CCNCC1,pEC50,[1],< 5.20
CCOc1ccc2cc(-c3nn(C4CCN(C(C)=O)CC4)c4ncnc(N)c34)ccc2c1,pEC50,[1],7.54
COc1ccc2cc(-c3nn(C(C)C)c4ncnc(N)c34)ccc2c1,pIC50,[2],6.29
same,pIC50,[3],< 5.00
same,pIC50,[4],7.10
same,GI50,[6],> 10 µM
same,pIC50,[7],5.59
same,pIC50,[8],5.80
same,pIC50,[10],6.17
same,GI50,[9],> 10 µM
CCCCOc1ccc2cc(-c3nn(C(C)C)c4ncnc(N)c34)ccc2c1,pEC50,[1],7.05
Nc1ncnc2c1c(-c1ccc3cc(OCc4cccc(Cl)c4)ccc3c1)nn2CC1CCNCC1,pEC50,[1],7.00
CCOc1ccc2cc(-c3nn(C4CCN(CCCN)CC4)c4ncnc(N)c34)ccc2c1,pEC50,[1],6.47
CC(C)n1nc(-c2cc3c(Cl)cccc3[nH]2)c2c(N)ncnc21,pIC50,[10],5.92
COc1ccc(-c2nn(C(C)C)c3ncnc(N)c23)cc1C,pEC50,[1],7.10
CC(C)Oc1ccc2cc(-c3nn(CC4CCNCC4)c4ncnc(N)c34)ccc2c1,pEC50,[1],6.30
CC(C)(C)n1nc(-c2ccc3ncccc3c2)c2c(N)ncnc21,pEC50,[1],6.96
CCOc1ccc2cc(-c3nn(C[C@@H](N)C(C)C)c4ncnc(N)c34)ccc2c1,pEC50,[1],6.00
CCOc1ccc2cc(-c3nn(CCC4CCN(CCCN)CC4)c4ncnc(N)c34)ccc2c1,pEC50,[1],5.92
CCOc1ccc2cc(-c3nn(CC4CCN(CC)CC4)c4ncnc(N)c34)ccc2c1,pEC50,[1],6.48
Nc1ncnc2c1cnn2CC1CCNCC1,pEC50,[1],< 5.20
same,pIC50,[10],< 5.00
CCCCOc1ccc2cc(-c3nn(CC4CCNCC4)c4ncnc(N)c34)ccc2c1,pEC50,[1],7.22
CC(C)n1nc(-c2ccc3cc(OCc4ccccc4Cl)ccc3c2)c2c(N)ncnc21,pEC50,[1],6.85
Cc1cccc(-c2nn(C(C)(C)C)c3ncnc(N)c23)c1,pEC50,[1],7.39
COc1ccc2cc(-c3nn(CC4CCNCC4)c4ncnc(N)c34)ccc2c1,pIC50,[2],< 5.00
same,pIC50,[3],< 5.00
same,pIC50,[4],6.21
same,pIC50,[5],< 5.00
same,GI50,[6],> 10 µM
same,pIC50,[7],< 5.00
same,pIC50,[8],< 5.00
same,pIC50,[10],< 5.00
same,GI50,[9],> 10 µM
